Several values for one entry are separate records, joined by “and”; a condition that tells them apart may be missing. Equal values may be shown once. Where a name gives a salt, the structure may show the parent alone.
Assay: Pharmacokinetics (lactone form, HPLC, non-compartmental) in plasma and urine, days 1 and 4 of first course
Details: for fe, fraction of the drug excreted unchanged / Clr, renal clearance: Table VI
Excerpt: British Journal of Cancer (1996) 73, 744-750 O (C? 1996 Stockton Press All rights reserved 0007-0920/96 $12.00 Phase I and pharmacological study of the new topoisomerase I inhibitor G1147211, using a daily x 5 intravenous administration CJH Gerrits', GJ Creemers', JHM Schellens', P Wissel2, AS Th Planting', R Kunka2, K Selinger2, M de Boer-Dennert', Y Marijnen3, M Harteveld' and J Verweijl 'Department of Medical Oncology, Rotterdam Cancer Institute, Rotterdam, The Netherlands; 2Glaxo Wellcome Inc, Department of Clinical Pharmacology, NC, USA; 3Glaxo Wellcome Inc, Department of Clinical Research, Zeist, The Netherlands. Summary Topoisomerase I inhibitors are interesting anti-cancer agents with a novel mechanism of action. […] In subsequent patient cohorts the dose was escalated from 0.3 to 1.5 mg m-2 day-'. Pharmacokinetics analysis was performed on days 1 and 4 of the first course using a validated high- performance liquid chromatographic assay and non-compartmental methods. […] Its further development was stopped because of unpredictable and severe myelosuppression, gastrointestinal toxicity and haemorrhagic cystitis. In the late 1980s two discoveries brought about a renewal of interest in CPT; firstly, topoisomerase I was identified as the single cellular target of CPT (Hsiang et al., 1985; Hsiang and Liu, 1988) and, secondly, an overexpression of topoisomerase I was found in various tumour cell lines but not in normal tissues (Giovanella et al., 1989; Hirabayaski et al., 1992; Potmesil et al., 1988). Topoisomerase I is a nuclear enzyme that resolves topological problems of the torsionally strained (supercoiled) DNA (Slichenmyer et al., 1993). This is achieved by forming a covalent adduct between topoisome- rase I and the DNA, termed the cleavable complex. This catalytic intermediate creates single-strand DNA breaks, allowing the DNA molecule to rotate around the intact DNA strand at the cleavage site, leading to a relaxation of the DNA molecule and in this way replication, transcription and other DNA functions can proceed. These enzyme- bridged breaks are then resealed by topoisomerase I. CPT stabilises the cleavable complexes, thereby preventing resealing of single-strand DNA breaks in the presence of the drug (Covey et al., 1989; D'Arpa and Liu, 1989; Eng et al., 1988). Cytotoxicity is specific to the S-phase of the cell cycle because the double-strand breaks that occur during this phase are more difficult to repair in the presence of the drug (Horwitz and Horwitz, 1973). […] Other eligibility criteria included: (1) age>, 18 years; (2) an Eastern Cooperative Oncology Group (ECOG) performance status <2; (3) a predicted life expectancy of at least 3 months; (4) no previous anti-cancer therapy for at least 3 weeks (6 weeks for previous nitro- soureas or mitomycin C); (5) adequate haemato- poietic (WBC) 3 x 109 -', ANC > 1.5 x 109 1-' and platelets 100 x 10 1- 1), hepatic (bilirubin within normal limits, AST, ALT and/or alkaline phosphatase < 2.0 x normal), and renal (serum creatinine < 130 imol 1-') functions. All patients gave written informed consent.

[1] = 1.2 mg m-2, day 1, mean of dose level
[2] = 1.2 mg m-2, day 4, individual patients 7-12 in order
[3] = 1.2 mg m-2, day 4, mean of dose level
[4] = 1.5 mg m-2, day 1, individual patients 13, 15-18 in order
[5] = 1.5 mg m-2, day 1, individual patients 13-18 in order
[6] = 1.5 mg m-2, day 1, mean of dose level
[7] = 1.5 mg m-2, day 4, individual patients 13-18 in order
[8] = 1.5 mg m-2, day 4, mean of dose level
[9] = day 4, individual patients 1-3, 5-12, 16-18 in order

Structure (SMILES): CC[C@@]1(O)C(=O)OCc2c1cc1n(c2=O)Cc2c-1nc1cc3c(cc1c2CN1CCN(C)CC1)OCCO3 [GI147211, [7 - (methylpiperazinomethylene) - 10,11 - ethylene-dioxy-20(S)] camptothecin dihydrochloride]
- Cmax, mean [1]: 14.98 ng/mL
- MRT, mean [1]: 3.47 h
- Vdss, mean [1]: 203 l m-2
- t1/2, mean [1]: 3.45 h
- tmax, mean [1]: 0.39 h
- AUCinf [2]: 20.59 ng·h/mL and 37.83 ng·h/mL and 21.10 ng·h/mL and 14.84 ng·h/mL and 26.62 ng·h/mL and 16.96 ng·h/mL
- Clearance, total plasma clearance [2]: 971 ml min-1 m-2 and 529 ml min-1 m-2 and 948 ml min-1 m-2 and 1348 ml min-1 m-2 and 802 ml min-1 m-2 and 1179 ml min-1 m-2
- Cmax [2]: 18.66 ng/mL and 20.03 ng/mL and 16.21 ng/mL and 9.62 ng/mL and 12.74 ng/mL and 11.63 ng/mL
- MRT [2]: 3.06 h and 5.62 h and 3.47 h and 3.96 h and 7.06 h and 4.44 h
- Vdss [2]: 163 l m-2 and 167 l m-2 and 182 l m-2 and 299 l m-2 and 307 l m-2 and 291 l m-2
- t1/2, elimination half-life [2]: 3.02 h and 4.07 h and 2.70 h and 2.20 h and 6.99 h and 4.99 h
- tmax [2]: 0.25 h and 0.42 h (5×)
- AUCinf, mean [3]: 22.99 ng·h/mL
- Clearance, mean [3]: 963 ml min-1 m-2
- Cmax, mean [3]: 14.82 ng/mL
- MRT, mean [3]: 4.60 h
- Vdss, mean [3]: 235 l m-2
- t1/2, mean [3]: 3.99 h
- tmax, mean [3]: 0.39 h
- AUCinf [4]: 24.66 ng·h/mL and 24.39 ng·h/mL and 23.32 ng·h/mL and 22.64 ng·h/mL and 28.37 ng·h/mL
- Clearance, total plasma clearance [4]: 1014 ml min-1 m-2 and 1025 ml min-1 m-2 and 1072 ml min-1 m-2 and 1104 ml min-1 m-2 and 881 ml min-1 m-2
- MRT [4]: 5.11 h and 3.57 h and 3.32 h and 3.65 h and 3.78 h
- Vdss [4]: 296 l m-2 and 204 l m-2 and 197 l m-2 and 225 l m-2 and 186 l m-2
- t1/2, elimination half-life [4]: 4.98 h and 4.62 h and 4.37 h and 4.61 h and 4.42 h
- Cmax [5]: 15.08 ng/mL and 27.48 ng/mL and 19.21 ng/mL and 19.53 ng/mL and 18.91 ng/mL and 15.90 ng/mL
- tmax [5]: 0.25 h (3×) and 0.42 h (2×) and 0.75 h
- AUCinf, mean [6]: 24.68 ng·h/mL
- Clearance, mean [6]: 1019 ml min-1 m-2
- Cmax, mean [6]: 19.35 ng/mL
- MRT, mean [6]: 3.89 h
- Vdss, mean [6]: 222 l m-2
- t1/2, mean [6]: 4.60 h
- tmax, mean [6]: 0.39 h
- AUCinf [7]: 26.92 ng·h/mL and 29.51 ng·h/mL and 30.85 ng·h/mL and 34.51 ng·h/mL and 24.85 ng·h/mL and 52.70 ng·h/mL
- Clearance, total plasma clearance [7]: 929 ml min-1 m-2 and 847 ml min-1 m-2 and 810 ml min-1 m-2 and 724 ml min-1 m-2 and 1006 ml min-1 m-2 and 474 ml min-1 m-2
- Cmax [7]: 20.02 ng/mL and 23.81 ng/mL and 25.41 ng/mL and 32.19 ng/mL and 21.18 ng/mL and 28.25 ng/mL
- MRT [7]: 5.06 h and 2.56 h and 3.04 h and 4.47 h and 5.75 h and 4.74 h
- Vdss [7]: 261 l m-2 and 117 l m-2 and 144 l m-2 and 178 l m-2 and 319 l m-2 and 126 l m-2
- t1/2, elimination half-life [7]: 4.95 h and 3.44 h and 4.35 h and 5.62 h and 5.82 h and 4.43 h
- tmax [7]: 0.42 h (4×) and 0.25 h (2×)
- AUCinf, mean [8]: 33.22 ng·h/mL
- Clearance, mean [8]: 798 ml min-1 m-2
- Cmax, mean [8]: 25.14 ng/mL
- MRT, mean [8]: 4.27 h
- Vdss, mean [8]: 191 l m-2
- t1/2, mean [8]: 4.77 h
- tmax, mean [8]: 0.36 h
- relation of AUC to the dose (0.3-1.5 mg m-2, Figure 3 day 4 of course 1): linearly related to the dose
- terminal half-life (abstract, all patients): 3.7 ± 1.2 h
- total plasma clearance (abstract, all patients): 999 ± 184 mL/min
- total plasma clearance, range (abstract, all patients): 640 to 1329 mL/min
- volume of distribution (abstract, all patients): 190+/-461 m-2
- fraction of the drug excreted unchanged in the urine (fe) (day 1): 0.14 ± 0.07
- renal clearance (day 1): 140+74 ml min-1 m-2
- Clr, mean (day 1, Table VI): 251 ml min-1 and 140 ml min-1 m-2
- fe, mean (day 1, Table VI): 0.143
- Total plasma clearance (mean+s.d.) (day 1, all dose levels): 1014+ 177.0 ml min-1 m-2
- Vdss (mean+s.d.) (day 1, all dose levels): 193+ 45.9 l m-2
- mean residence time (MRT) (mean+s.d.) (day 1, all dose levels): 3.53+0.93 h
- t1/2 (mean+s.d.) (day 1, all dose levels): 3.54+0.99 h
- fe, fraction of the drug excreted unchanged (day 1, individual patients 1-12, 14, 15 in order): 0.114 and 0.081 and 0.212 and 0.115 and 0.156 and 0.149 and 0.106 and 0.101 and 0.088 and 0.085 and 0.116 and 0.347 and 0.191 and 0.135
- Clr, renal clearance (day 1, individual patients 1-12, 15 in order): 232 ml min-1 and 116 ml min-1 m-2 and 184 ml min-1 and 101 ml min-1 m-2 (2×) and 333 ml min-1 and 222 ml min-1 m-2 and 231 ml min-1 and 115 ml min-1 m-2 and 161 ml min-1 and 194 ml min-1 and 107 ml min-1 m-2 (2×) and 201 ml min-1 and 122 ml min-1 m-2 and 151 ml min-1 and 84 ml min-1 m-2 and 203 ml min-1 and 226 ml min-1 and 113 ml min-1 m-2 and 208 ml min-1 and 119 ml min-1 m-2 and 663 ml min-1 and 358 ml min-1 m-2 and 280 ml min-1 and 150 ml min-1 m-2
- Clr, mean (day 4, Table VI): 244 ml min-1 and 138 ml min-1 m-2
- Clr, renal clearance [9]: 175 ml min-1 and 88 ml min-1 m-2 and 128 ml min-1 and 70 ml min-1 m-2 and 430 ml min-1 and 287 ml min-1 m-2 and 192 ml min-1 and 120 ml min-1 m-2 and 225 ml min-1 and 123 ml min-1 m-2 and 196 ml min-1 and 119 ml min-1 m-2 and 212 ml min-1 and 118 ml min-1 m-2 and 241 ml min-1 and 127 ml min-1 m-2 and 344 ml min-1 and 172 ml min-1 m-2 and 314 ml min-1 and 179 ml min-1 m-2 and 459 ml min-1 and 248 ml min-1 m-2 and 218 ml min-1 and 128 ml min-1 m-2 and 182 ml min-1 and 91 ml min-1 m-2 and 101 ml min-1 and 59 ml min-1 m-2
- fe, fraction of the drug excreted unchanged [9]: 0.109 and 0.095 and 0.428 and 0.181 and 0.197 and 0.122 and 0.219 and 0.133 and 0.128 and 0.239 and 0.210 and 0.177 and 0.090 and 0.125

— article PMC2074382 (British Journal of Cancer, 1996)
